From patent US6544166B1, “Treatment of human infertility” (priority 1999, dated 2003)
Marks after values point to notes of the source that are not given here.

Tests used:
[1] = tested on: mouse oocytes; details: 24 hours meiotic arrest with hypoxanthine, then 16-30 hour culture in inhibitor-free medium; cited from earlier work
[2] = tested on: mouse oocytes; assay: In vitro fertilization of mouse oocytes after in vitro maturation with or without Hx arrest and FF-MAS induction (Example 4); assay type: cell-based, mice (C57Bl/6J×DBA/2J F1-hybrids)
Experimental: Aim: to optimize the culture conditions for mammalian oocytes by arresting the spontaneous maturation for 4 hours before initiating oocyte maturation by the means of adding a adequate concentration of FF-MAS.
Óocytes were obtained from immature (21-24 day old) female mice (C57Bl/6J×DBA/2J F1-hybrids, M&B, Denmark) weighing 13-16 grams, which were kept under controlled lighting and temperature. […] The ovaries were dissected out and the oocytes were isolated in Hx-medium (see below) under a stereomicroscope by manual rupture of the follicles using a pair of 27 gauge needles. Spherical oocytes displaying an intact germinal vesicle (GV) were selected and placed in α-minimum essential medium (α-MEM without ribonucleosides, Gibco BRL, Cat. No. 22561) supplemented with 3 mM hypoxanthine (Sigma Cat. No. H-9377), 8 mg/ml Human Serum Albumin (HSA, State Serum Institute, Denmark), 0.23 mM pyruvate (Sigma, Cat. No. S-8636), 2 mM glutamine (Flow Cat. No. 16-801), 100 IU/ml penicillin and 100 μg/ml streptomycin (Flow, Cat. No. 16-700). This medium was designated Hx-medium. The exact same medium without Hx was designated Hx-free medium
Thus oocytes were cultured in 4-well multidishes (Nunclon, Denmark) in which each well contained 0.4 ml of Hx-medium or medium without Hx (to allow for spontaneous maturation) and 35-45 oocytes.
Different treatment groups:
1. Controls: No inhibition, No FF-MAS
2. MAS: No inhibition and 10 μM FF-MAS
3. Inhibition and then spontaneous maturation: Hx-medium for 4 hours then transfer to Hx-free medium
4. Inhibition and FF-MAS induction: Hx-medium for 4 hours and addition of FF-MAS to Hx-medium
5. Inhibition and removal of inhibition and then subsequently FF-MAS induction: Hx-medium for 4 hours, rinse, transfer to Hx-free medium and addition of FF-MAS.
In vitro fertilization following 16-20 hours maturation.
Endpoints: Fertilization rate and in vitro embryo development.

[3] = tested on: cumulus enclosed human oocytes; assay: Maturation of cumulus enclosed human oocytes with FF-MAS; assay type: cell-based
Text: Although the use of FF-MAS improves the rate of fertility compared to the currently applied methods, it is still desirable to increase this rate even further.

[4] = Treatment No 3: Hx-medium (3 mM hypoxanthine) for 4 hours then transfer to Hx-free medium, no FF-MAS
[5] = Treatment No 4: Hx-medium for 4 hours and addition of FF-MAS to Hx-medium
[6] = Treatment No 5: Hx-medium for 4 hours, rinse, transfer to Hx-free medium and addition of FF-MAS

Row | Structure (SMILES) | Arrested oocytes that resumed maturation [1] | Embryo development Rate (8-cell rate at 72 hours) [2, 4] | Fertilization Rate [2, 4] | Effect on nuclear and cytoplasmic maturation [3] | Oocyte quality evaluated as fertilization rate and embryonic developmental capacity, compared with the other treatments ([2]; 4th treatment modality: inhibition (Hx-medium) and FF-MAS induction) | Embryo development Rate (8-cell rate at 72 hours) ([2]; Treatment No 2: no inhibition and 10 μM FF-MAS) | Fertilization Rate ([2]; Treatment No 2: no inhibition and 10 μM FF-MAS, IVF following 16-20 hours maturation) | Embryo development Rate (8-cell rate at 72 hours) [2, 5] | Fertilization Rate [2, 5] | Embryo development Rate (8-cell rate at 72 hours) [2, 6] | Fertilization Rate [2, 6]
1 | O=c1[nH]cnc2nc[nH]c12 [hypoxanthine, Hypoxanthine] | ~100% | <10% | <50% |  |  |  |  |  |  |  | 
2 | CC(C)=CCC[C@@H](C)[C@H]1CC=C2C3=C(CC[C@@]21C)[C@@]1(C)CC[C@H](O)C(C)(C)[C@@H]1CC3 [FF-MAS, 4,4-dimethyl-5α-cholesta-8,14,24-triene-3β-ol] |  |  |  | improves not only nuclear but cytoplasmic maturation | significantly superior to the other treatment alternatives | <10% | <50% | 30%* | 75%* | <10% | <50%
